Data from article PMC7444661 (Journal of medicinal chemistry, 2019).

Experiments:
[1] = tested on: mice; assay: Mouse novel object recognition after 24-hour delay; type: in vivo, Male ICR mice; conditions: mouse NOR
[2] = target: PDE4B1-S133D (Homo sapiens, UniProt Q07343, S133D/S659A/S661A); assay: PDE4 coupled enzyme assay of cAMP hydrolysis, PDE4B1-S133D; type: biochemical; conditions: mean ± SD
[3] = target: PDE4D7-S129(wt) (Homo sapiens, UniProt Q08499, S715A/S717A); assay: PDE4 coupled enzyme assay of cAMP hydrolysis, PDE4D7-S129; type: biochemical; conditions: mean ± SD
[4] = target: T1, PDE4D7-S129D (Homo sapiens, UniProt Q08499, S190D/S715A/S717A); assay: PDE4 coupled enzyme assay of cAMP hydrolysis, PDE4D7-S129D; type: biochemical; conditions: mean ± SD
[5] = Metabolite identification in human hepatocytes; type: in vitro ADME; conditions: compound 23 incubated 4 hour with human hepatocytes
[6] = Metabolite identification in rat hepatocytes; type: in vitro ADME, male Wistar rats; conditions: compound 23 incubated 4 hour with rat hepatocytes
[7] = target: T1, PDE4D7-S129D; assay: PDE4D7-S129D inhibition in the presence of bovine serum albumin; conditions: bovine serum albumin at 1 mg/mL
[8] = Pharmacokinetics in mice; type: in vivo; conditions: oral
[9] = Liver microsome stability; type: in vitro ADME, dog, mouse, rat and monkey; conditions: human
[10] = target: PDE4D3-S54D (Homo sapiens, UniProt Q08499, S190D/S715A/S717A); assay: PDE4 coupled enzyme assay of cAMP hydrolysis, PDE4D3-S54D; type: biochemical; conditions: mean ± SD
[11] = tested on: dogs; assay: Dose range finding toxicology, dogs; type: in vivo; conditions: 100 mg/kg
[12] = target: PDE4D-cat (Homo sapiens, UniProt Q08499, S715A/S717A); assay: PDE4 coupled enzyme assay of cAMP hydrolysis, PDE4D-cat; type: biochemical; conditions: mean ± SD
[13] = tested on: PDE1-11; assay: Counter assays against PDE1-11; type: biochemical; conditions: read-out: off target IC50 against PDE1-11; BPS Bioscience, all assays
[14] = tested on: FMR1 knockout mice; conditions: cited from earlier work
[15] = tested on: cynomolgus monkeys; assay: Emesis in cynomolgus monkeys; type: in vivo; conditions: oral doses up to 50 mg/kg
[16] = tested on: rats; assay: Safety pharmacology, CNS and pulmonary, rats; type: in vivo; conditions: up to a maximum oral dose of 60 mg/kg
[17] = tested on: bacteria; assay: Mutagenicity in bacteria
[18] = tested on: ferrets; assay: Emesis in ferrets; type: in vivo; conditions: oral doses up to 30 mg/kg
[19] = tested on: mice; assay: Anesthesia duration test; type: in vivo, Male ICR mice; conditions: mouse
[20] = target: PDE4D2 (Homo sapiens, UniProt Q08499, S715A/S717A); assay: PDE4 coupled enzyme assay of cAMP hydrolysis, PDE4D2; type: biochemical; conditions: mean ± SD
[21] = tested on: humanized PDE4D mice; conditions: cited from earlier work
[22] = tested on: rats; assay: Dose range finding toxicology, rats; type: in vivo; conditions: oral dose of 100 mg/kg
[23] = tested on: rats and dogs; assay: Toxicological studies of 28 and 90 days duration; type: in vivo
[24] = tested on: dog; assay: Safety pharmacology, cardiovascular function, dog; type: in vivo; conditions: up to a maximum oral dose of 100 mg/kg

T1 sequence (Q08499 1-748 isoform Q08499-11 S129D/S654A/S656A): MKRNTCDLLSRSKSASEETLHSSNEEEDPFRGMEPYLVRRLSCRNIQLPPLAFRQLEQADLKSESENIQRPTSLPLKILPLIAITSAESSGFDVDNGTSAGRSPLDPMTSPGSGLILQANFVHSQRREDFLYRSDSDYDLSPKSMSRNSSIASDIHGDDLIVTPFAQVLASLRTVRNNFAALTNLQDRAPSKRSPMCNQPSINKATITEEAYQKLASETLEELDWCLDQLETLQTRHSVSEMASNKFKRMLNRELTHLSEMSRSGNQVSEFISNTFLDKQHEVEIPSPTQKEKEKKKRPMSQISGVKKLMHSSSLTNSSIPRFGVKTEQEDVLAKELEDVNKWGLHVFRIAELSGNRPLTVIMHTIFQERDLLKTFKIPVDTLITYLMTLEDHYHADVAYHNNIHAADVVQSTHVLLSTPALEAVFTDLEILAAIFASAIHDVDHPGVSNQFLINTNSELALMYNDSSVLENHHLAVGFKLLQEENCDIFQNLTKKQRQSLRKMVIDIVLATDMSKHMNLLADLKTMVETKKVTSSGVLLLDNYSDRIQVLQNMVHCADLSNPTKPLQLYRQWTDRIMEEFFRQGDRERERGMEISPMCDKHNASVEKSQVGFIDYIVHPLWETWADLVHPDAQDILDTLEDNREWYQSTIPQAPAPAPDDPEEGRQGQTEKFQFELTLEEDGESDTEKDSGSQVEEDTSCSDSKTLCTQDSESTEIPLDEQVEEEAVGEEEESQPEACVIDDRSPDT
Chain of PDE4B1-S133D (Q07343 whole entry S133D/S659A/S661A): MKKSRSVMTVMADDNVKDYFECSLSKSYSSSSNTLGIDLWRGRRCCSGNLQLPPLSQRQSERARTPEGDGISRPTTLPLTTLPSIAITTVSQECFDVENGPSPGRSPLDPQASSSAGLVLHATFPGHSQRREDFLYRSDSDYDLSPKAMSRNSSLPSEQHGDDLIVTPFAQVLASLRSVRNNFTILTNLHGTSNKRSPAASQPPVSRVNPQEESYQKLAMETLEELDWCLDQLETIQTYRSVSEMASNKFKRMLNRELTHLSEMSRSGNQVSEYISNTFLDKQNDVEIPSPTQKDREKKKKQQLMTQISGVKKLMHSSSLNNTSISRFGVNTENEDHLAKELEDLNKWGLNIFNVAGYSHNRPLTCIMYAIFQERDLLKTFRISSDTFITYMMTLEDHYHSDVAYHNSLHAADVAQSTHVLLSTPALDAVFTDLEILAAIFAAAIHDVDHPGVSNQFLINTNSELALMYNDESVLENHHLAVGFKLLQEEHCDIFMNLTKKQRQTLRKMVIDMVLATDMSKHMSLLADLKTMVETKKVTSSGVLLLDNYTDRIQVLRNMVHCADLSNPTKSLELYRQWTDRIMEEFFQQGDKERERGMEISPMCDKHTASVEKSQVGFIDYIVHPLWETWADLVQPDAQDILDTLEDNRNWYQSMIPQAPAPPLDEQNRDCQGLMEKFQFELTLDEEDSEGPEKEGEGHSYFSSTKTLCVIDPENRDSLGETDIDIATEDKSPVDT
Chain of PDE4D7-S129(wt) (Q08499 1-748 isoform Q08499-11 S654A/S656A): as the sequence (Q08499 1-748 isoform Q08499-11 S129D/S654A/S656A) above, with D129S counted along it
Chain of PDE4D3-S54D (Q08499 1-673 isoform Q08499-2 S54D/S579A/S581A): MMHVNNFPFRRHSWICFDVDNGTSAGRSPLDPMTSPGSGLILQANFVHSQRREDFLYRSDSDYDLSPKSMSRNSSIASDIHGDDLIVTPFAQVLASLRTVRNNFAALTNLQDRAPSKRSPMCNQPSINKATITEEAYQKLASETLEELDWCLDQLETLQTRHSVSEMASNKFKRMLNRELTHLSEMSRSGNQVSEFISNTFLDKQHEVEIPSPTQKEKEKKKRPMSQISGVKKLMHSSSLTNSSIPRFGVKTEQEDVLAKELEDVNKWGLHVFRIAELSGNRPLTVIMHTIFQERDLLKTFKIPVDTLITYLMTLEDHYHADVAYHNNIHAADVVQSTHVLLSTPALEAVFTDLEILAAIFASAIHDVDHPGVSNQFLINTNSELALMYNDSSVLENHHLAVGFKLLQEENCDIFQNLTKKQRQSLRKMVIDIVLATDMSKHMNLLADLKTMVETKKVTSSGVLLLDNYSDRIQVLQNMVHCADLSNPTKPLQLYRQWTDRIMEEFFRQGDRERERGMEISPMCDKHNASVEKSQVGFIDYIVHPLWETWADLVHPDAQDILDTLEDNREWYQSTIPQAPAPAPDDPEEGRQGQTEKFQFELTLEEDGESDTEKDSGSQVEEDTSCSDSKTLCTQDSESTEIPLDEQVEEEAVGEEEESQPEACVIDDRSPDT
Chain of PDE4D2 (Q08499 303-809 S715A/S717A): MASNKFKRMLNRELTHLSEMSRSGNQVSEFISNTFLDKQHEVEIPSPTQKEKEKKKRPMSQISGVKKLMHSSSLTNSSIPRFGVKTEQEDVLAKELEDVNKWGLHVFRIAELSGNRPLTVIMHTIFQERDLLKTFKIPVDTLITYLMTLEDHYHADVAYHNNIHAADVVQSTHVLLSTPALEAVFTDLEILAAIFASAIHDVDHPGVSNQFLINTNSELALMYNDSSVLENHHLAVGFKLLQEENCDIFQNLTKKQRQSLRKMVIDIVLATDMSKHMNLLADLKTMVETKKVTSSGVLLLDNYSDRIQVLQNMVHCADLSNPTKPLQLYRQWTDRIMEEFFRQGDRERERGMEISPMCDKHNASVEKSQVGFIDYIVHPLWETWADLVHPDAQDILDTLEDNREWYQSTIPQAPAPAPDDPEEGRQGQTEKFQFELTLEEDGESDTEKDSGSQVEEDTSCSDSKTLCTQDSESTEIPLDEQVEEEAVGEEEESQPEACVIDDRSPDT
Chain of PDE4D-cat (Q08499 380-743 S715A/S717A): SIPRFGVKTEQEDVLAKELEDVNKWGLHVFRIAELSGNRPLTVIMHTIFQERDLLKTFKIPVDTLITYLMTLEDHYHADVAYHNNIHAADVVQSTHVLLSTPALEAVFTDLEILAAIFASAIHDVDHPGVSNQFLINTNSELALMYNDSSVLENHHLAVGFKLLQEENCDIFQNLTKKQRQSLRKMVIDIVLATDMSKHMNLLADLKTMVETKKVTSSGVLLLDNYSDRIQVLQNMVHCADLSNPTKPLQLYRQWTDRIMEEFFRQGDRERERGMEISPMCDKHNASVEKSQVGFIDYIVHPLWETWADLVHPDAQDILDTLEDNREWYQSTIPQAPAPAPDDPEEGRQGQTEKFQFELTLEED

For `COc1ccc(C2CNC(=O)C2)cc1OC1CCCC1` (stereo not drawn) [rolipram, reference compound], the “dose that significantly improved novel object discrimination” value ([1]; SC) was 0.1 mg/kg.

With `CCc1cc(Cc2ccc(CC(=O)NCCO)cc2)nc(-c2cccc(Cl)c2)n1` [Compound 29, 2-(4-((2-(3-Chlorophenyl)-6-ethylpyrimidin-4-yl)methyl)phenyl)-N-(2-hydroxyethyl)acetamide] the “Hill Slope PDE4B1-S133D dimer activated” value [2] was 0.37 ± 0.04, the “Hill Slope PDE4D7-S129(wt) dimer basal” value [3] was 0.50 ± 0.1 and the “Hill Slope PDE4D7-S129D dimer activated” value [4] was 0.66± 0.03.

For `CCc1cc(Cc2ccc(CC(=O)O)cc2)nc(-c2cccc(Cl)c2)n1` [Compound M6], the “percentage of metabolite present” value [5] was less than 1% and the “percentage of metabolite present” value [6] was 29.1%.

In the case of `CCc1cc(Cc2ccc(CC(N)=O)cc2)nc(-c2cccc(Cl)c2)n1` [Compound 23, 2-(4-((2-(3-Chlorophenyl)-6-ethylpyrimidin-4-yl)methyl)phenyl)acetamide], the “shift in IC50 for PDE4D7-S129D inhibition in the presence of BSA” value [7] is reported as “no shift”, the extended absorption [8] is reported as 4 to 8 h and the “parent remaining in liver microsomes” value ([9]; dog, mouse, rat and monkey liver microsomes, at 30 min) is reported as 54-90%.

In the case of `O=C(O)Cc1ccc(Cc2cc(-c3cccc(Cl)c3)nc(C(F)(F)F)c2)cc1` [Compound 28, 2-(4-((2-(3-chlorophenyl)-6-(trifluoromethyl)pyridin-4-yl)methyl)phenyl)acetic acid], the “Hill Slope PDE4B1-S133D dimer activated” value [2] is reported as 0.92 ± 0.21, the “Hill Slope PDE4D3-S54D dimer activated” value [10] is reported as 0.68 ± 0.14 and the “dose range finding toxicology findings” value [11] is reported as “emesis, tremor and weight loss”. For the same molecule, the “Hill Slope PDE4D-cat monomer” value [12] was 1.2 ± 0.10, the IC50 [13] was greater than 10 µM and the “maturation of dendritic spines on layer 2/3 pyramidal cells” value ([14]; FMR1 knockout mice) was “promotes”. The “behavior of adult FMR1 knockout mice” value [14] was “normalizes”, the emesis [15] was “nor did it cause emesis” and the “doses that significantly improved novel object discrimination” value ([1]; oral (PO), versus vehicle) was “above 0.3 mg/kg”. The “adverse CNS or pulmonary effects” value [16] was “no adverse CNS or pulmonary effects”, the mutagenicity in bacteria [17] was “not mutagenic” and the emesis [18] was “did not cause emesis”. The “effect on anesthesia duration” value ([19]; doses of 3, 10 and 30 mg/kg PO) was “no significant effect”, the “change in anesthesia duration” value ([19]; doses up to 30 mg/kg) was “no change” and the “Hill Slope PDE4D2 monomer” value [20] was 0.60± 0.16. The “Hill Slope PDE4D7-S129(wt) dimer basal” value [3] was 0.58 ± 0.11, the “potency in humanized PDE4D mice as compared to wild-type mice” value [21] was “increased potency” and the “brain cAMP” value ([21]; mice) was “increases”. For the same molecule, the “late phase of hippocampal long-term potentiation (LTP)” value ([21]; mice) was “augments”, the “phosphorylation of CREB” value ([21]; mice) was “increases” and the “production of brain-derived neurotrophic factor (BDNF) in hippocampus” value ([21]; mice) was “increases”. For the same molecule, the “short and long term memory” value ([21]; mice) was “improves”, the “dose range finding toxicology findings” value [22] was “inappetence and weight loss” and the “Hill Slope PDE4D7-S129D dimer activated” value [4] was 0.55± 0.12. For the same molecule, the “vascular toxicity and microscopic findings” value [23] was “did not reveal vascular toxicity nor any other microscopic findings”, the “effect on cardiovascular function” value [24] was “no effect” and the “remaining in liver microsomes” value ([9]; rat, mouse and dog liver microsomes, after 30 min incubation) was 88-100%.
